Results as given in patent US20230173082A1, “ANTIBACTERIAL PRODUCTS” (UNIVERSITY OF LINCOLN, priority 2014, published 2023).
Values joined by “and” are separate entries in the source; they are usually repeats but may differ in a detail not shown here. Identical values can stand only once. Like-named read-outs stand apart in the source and are kept apart here.

Columns and labels:
K. Pneumonia 700603 = experiment: MIC testing (MIC/MBC), broth dilution; type: cell-based; details: runs A, B, C, delivery agents with Moenomycin A at 1:2 ratio; for MIC: 24 hours at 37° C.
Description: (§1) • The bacteria were grown in 5 ml of Mueller Hinton Broth overnight at 37° C. • The inhibitor was tested on its own or in conjunction with a cell penetrating peptide (CPP). • When tested with a CPP they were incubated together at room temperature for 1 hour before use. • Delivery agents (Compound 5, Compound 6, and 7) were used at a 1:2 ratio.

E. Coli 25922 = experiment: MIC testing (MIC/MBC), broth dilution; type: cell-based; details: delivery agents with Moenomycin A at 1:2 ratio
Description: as §1

A. Baumannii 19606 = experiment: MIC testing (MIC/MBC), broth dilution; type: cell-based; details: runs A, B, C, delivery agents with Moenomycin A at 1:2 ratio; for MIC: 24 hours at 37° C.
Description: as §1

B. Subtilis 2410 = experiment: MIC testing (MIC/MBC), broth dilution; type: cell-based; details: delivery agents with Moenomycin A at 1:2 ratio
Description: as §1

P. Aeruginosa 27853 = experiment: MIC testing (MIC/MBC), broth dilution; type: cell-based; details: runs A, B, C, delivery agents with Moenomycin A at 1:2 ratio; for MIC: 24 hours at 37° C.
Description: as §1

HeLa cells = experiment: In vitro toxicity testing in HeLa cells; type: cell-based
tumor cell line 786-O = experiment: In vitro cell viability in tumor cell line 786-O; type: cell-based; details: initial in vitro testing
mammalian cells [1] = tested on: mammalian cells
mammalian cells [2] = experiment: Mammalian cytotoxicity (cell type not stated)
[3] = Escherichia coli, read-out: MBC
[4] = Escherichia coli, read-out: MIC
[5] = Acinetobacter baumannii, read-out: MIC
[6] = Bacillus subtilis, read-out: MBC
[7] = Bacillus subtilis, read-out: MIC
[8] = Pseudomonas aeruginosa, read-out: MIC
[9] = Pseudomonas aeruginosa, read-out: MBC

Row | Structure (SMILES) | MIC (K. Pneumonia 700603) | MIC (E. Coli 25922; [4]) [µg/mL] | MIC (A. Baumannii 19606; [5]) [µg/mL] | MIC (B. Subtilis 2410; [7]) [µg/mL] | MIC (P. Aeruginosa 27853) | MIC (P. Aeruginosa 27853; [8]) [µg/mL] | MIC (A. Baumannii 19606) | MBC (K. Pneumonia 700603) | MBC (E. Coli 25922; [3]) [µg/mL] | MBC (A. Baumannii 19606) | MBC (B. Subtilis 2410; [6]) [µg/mL] | MBC (P. Aeruginosa 27853) | MBC (P. Aeruginosa 27853; [9]) [µg/mL] | other results
1 | CC1(C)S[C@@H]2[C@H](NC(=O)[C@H](N)c3ccccc3)C(=O)N2[C@H]1C(=O)O [Ampicillin, reference compound] | Growth in all wells | 8 | 128 | 128 | Growth in all wells | – | – | Growth in all wells | 8 | Growth in all wells | 256 | Growth in all wells | – | –
2 | CCCCCCCCCCCCCCCCCC(=O)OC(COCC(COC(=O)NCCCN(C)CCCN)OC(=O)NCCCN(C)CCCN)COCC(COC(=O)NCCCN(C)CCCN)OC(=O)NCCCN(C)CCCN (centres unmarked) [Compound 5] | 64 µg/mL | 64 | – | 32 | – | 256 | – | 64 µg/mL | 128 | – | 32 | – | 256 | MIC (K. Pneumonia 700603; Klebsiella pneumoniae, 24 h, read-out: MIC): 128 µg/mL; MBC (K. Pneumonia 700603; Klebsiella pneumoniae, read-out: MBC): 128 µg/mL
3 | C#CC(=O)N[C@@H](CCCNC(=N)N)C(=O)N[C@@H](CCCNC(=N)N)C(=O)N[C@@H](CCCNC(=N)N)C(=O)N[C@@H](CCCNC(=N)N)C(=O)N[C@@H](CCCNC(=N)N)C(=O)N[C@@H](CCCNC(=N)N)C(=O)N[C@@H](CCCNC(=N)N)C(=O)N[C@@H](CCCNC(=N)N)C(N)=O [Compound 8] | – | – | – | – | – | – | – | – | – | – | – | – | – | concentration up to which no toxicity was observed (mammalian cells [1]): up to 110 µg/mL

Now from value to compound, other results behind:

Row | MIC (K. Pneumonia 700603) | MIC (E. Coli 25922; [4]) [µg/mL] | MIC (A. Baumannii 19606; [5]) [µg/mL] | MIC (B. Subtilis 2410; [7]) [µg/mL] | MIC (P. Aeruginosa 27853) | MIC (P. Aeruginosa 27853; [8]) [µg/mL] | MIC (A. Baumannii 19606) | Structure (SMILES) | MBC (K. Pneumonia 700603) | MBC (E. Coli 25922; [3]) [µg/mL] | MBC (A. Baumannii 19606) | MBC (B. Subtilis 2410; [6]) [µg/mL] | MBC (P. Aeruginosa 27853) | MBC (P. Aeruginosa 27853; [9]) [µg/mL] | other results
4 | – | 256 | 256 | 32 | – | 256 | – | CCCCCCCCCCCCCCCCCC(=O)OC(COC(COCC(COC(=O)NCCCN(C)CCCN)OC(=O)NCCCN(C)CCCN)COCC(COC(=O)NCCCN(C)CCCN)OC(=O)NCCCN(C)CCCN)COC(COCC(COC(=O)NCCCN(C)CCCN)OC(=O)NCCCN(C)CCCN)COCC(COC(=O)NCCCN(C)CCCN)OC(=O)NCCCN(C)CCCN (centres unmarked) [Compound 6] | – | – | – | 32 | – | 256 | concentration at which toxic (HeLa cells): 20000 ng/mL; MBC (A. Baumannii 19606; Acinetobacter baumannii, read-out: MBC): 256 µg/mL; effect on cell viability (tumor cell line 786-O): did not affect the cell viability
5 | Growth in all wells | – | – | – | Growth in all wells | – | Growth in all wells | N=C(N)NCCNC(=O)CCN(CCC(=O)NCCNC(=N)N)CCN(CCC(=O)NCCNC(=N)N)CCC(=O)NCCNC(=N)N [Compound 7, 3,3’,3”,3”’-(Ethane-1,2-Divlbis(Azanetrivl)) Tetrakis(N-(2-Guanidinoethyl)Propanamide)] | Growth in all wells | – | Growth in all wells | – | Growth in all wells | – | –
6 | 64 µg/mL | – | – | – | 256 µg/mL | – | 4 µg/mL and 8 µg/mL | C=C(C/C=C(\C)CCC=C(C)C)CCC(C)(C)/C=C/CC/C(C)=C/CO[C@@H](COP(=O)(O)O[C@H]1O[C@H](C(N)=O)[C@@](C)(O)[C@H](OC(N)=O)[C@H]1O[C@@H]1O[C@H](CO[C@@H]2O[C@H](CO)[C@@H](O)[C@H](O)[C@H]2O)[C@@H](O[C@@H]2O[C@H](C)[C@@H](O[C@@H]3O[C@H](C(=O)NC4=C(O)CCC4=O)[C@H](O)[C@H](O)[C@H]3O)[C@H](O)[C@H]2NC(C)=O)[C@H](O)[C@H]1NC(C)=O)C(=O)O [Moenomycin A, reference compound] | 128 µg/mL | – | 8 µg/mL | – | Growth in all wells | – | concentration up to which no toxicity was observed (mammalian cells [2]): up to 10 mg/mL; MBC (E. Coli 25922): 128 µg/mL; MIC (E. Coli 25922): 32 µg/mL; MBC (B. Subtilis 2410): Growth in all wells; MIC (B. Subtilis 2410): 256 µg/mL
